The record followed here is patent US20240315219A1, “ANIMAL MODEL FOR DISEASES ASSOCIATED WITH ABSENCE OR REDUCTION OF SOCIAL DOMINANCE, AND PHARMACEUTICAL COMPOSITION FOR PREVENTING OR TREATING DISEASES” (ADEL, Inc., priority 2021, published 2024).

The test system of one experiment is CRTC3 KO mice. The experiment can be described thus: Tube dominance test, CRTC3 KO mice housed with WT mice. In kind it is in vivo, mouse. The protocol:
(§1) The apparatus for the tube dominance test was made of a transparent plastic tube with a length of 30 cm and an inner diameter of 2.5 cm. To allow the mice to adapt to passing through the inside of the tube, the respective mice were trained to pass across the tube alternately on both sides for two or three consecutive days. During the training period, care was taken to ensure that the mice passed through the tube as naturally as possible without causing stress. This test was performed after identifying that all mice could freely pass through the tube without stress.
During the dominance test period, a total of 2 mice, one at each end of the tube, were placed to meet in the middle of the tube. In a case where one mouse pushed the other mouse out of the tube, one (1) winning point was earned. The test was repeated three times. […] For each test, win or loss was determined by winning points. […]
First, starting at 1 month of age, the CRTC3 KO mice and the WT mice were housed in one group and raised together for 2 months. […] To determine changes in ranking of the mice in the group, social dominance ranking was evaluated by a tube dominance test daily for 15 days starting at 3 months of age. The respective mice in the group were tested in turn, and dominance ranking of the mice in the group was determined based on their winning points. […]

The subject of the next experiment is C57BL/6 mice. The experiment is described as follows: Tube dominance test, lowest-ranked mouse in C57BL/6 mouse group. As to conditions: lowest-ranked C57BL/6 mouse, intracerebroventricular via osmotic pump. In kind it is in vivo. As for the experimental part: as §1
During the dominance test period, a total of 2 mice, one at each end of the tube, were placed to meet in the middle of the tube. In a case where one mouse pushed the other mouse out of the tube, one (1) winning point was earned. The test was repeated three times. For example, in a case where one mouse earned 2 or 3 winning points, the mouse was considered a winner and the other mouse was considered a loser. For the mice housed in the same cage, the tube test was performed on three mice in turn to determine social dominance ranking. For example, for mouse no. 1, the tube test was performed with mouse nos. 2 and 3. In a case where mouse no. 1 wins both mice, it is ranked first. Meanwhile, in a case where mouse no. 2 loses to mouse no. 1 and wins mouse no. 3, it is ranked second. In the two tests, mouse no. 3 is ranked third since it loses to both mice. For each test, win or loss was determined by winning points.
First, starting at 1 month of age, the CRTC3 KO mice and the WT mice were housed in one group and raised together for 2 months. This allowed social ranking to be naturally formed among the mice in the same group. To determine changes in ranking of the mice in the group, social dominance ranking was evaluated by a tube dominance test daily for 15 days starting at 3 months of age. The respective mice in the group were tested in turn, and dominance ranking of the mice in the group was determined based on their winning points. […]

The next experiment relates to wild-type rats. The experiment is described as follows: Brain fMRI, resting-state functional connectivity (rsFC) in wild-type rats. In kind it is in vivo, rat. As to conditions: SD rats, vs PBS group. As for the experimental part:
To identify which regions of the brain are affected by administration of AREG-EGF, fMRI was performed on wild-type rats injected with AREG-EGF. The rats having received PBS as a control and the rats having received AREG-EGF were imaged with fMRI one month later, in which interaction signals between various regions in the brain were checked. Specifically, the rats, which are SD (Spraque Dawley) rat species, were eight, 5- to 6-week-old male rats purchased from Orient Bio. AREG-EGF was administered to the rats by intracerebroventricular injection (ICV) on Weeks 6 to 7 after the purchase, and fMRI imaging was performed 21 days after the administration. The fMRI imaging was performed in such a way that first imaging was performed on an anesthetized rat under normal conditions (pre-state), and then fMRI re-imaging was performed on the same rat by placing cotton soaked in the urine of another rat, which it had never encountered, so that the rat being imaged can sniff the cotton (post-state). For rodents, social responses such as social identification occur through urine marking done by the other individuals. Thus, urine from an unfamiliar rat was used to elicit social responses. For specific methods of administering AREG-EGF and performing MRI analysis, see Experimental Examples 2.1 and 3. […]

As to “AREG-EGF: Peptide of the EGF domain of amphiregulin, SEQ ID NO: 13, from Peptron (KKNPCNAEFQNFCIHGECKYIEHLEAVTCKCQQEYFGERCGEK; AREG-EGF Peptide)”, in the experiment on CRTC3 KO mice (CRTC3 KO mice with low ranking, housed with WT mice, intracerebroventricular via osmotic pump), the “cages in which changes (increase) in social dominance ranking were observed after administration” value amounted to 50%. The “winning points after vs before administration” value in the experiment with CRTC3 KO mice (CRTC3 KO mice, ICV osmotic pump) was “changes in winning points and increases in tube test ranking”. Also, the “cages in which ranking of the lowest-ranked mouse increased after administration” value in the experiment with C57BL/6 mice is reported as 80%. Further, the “rsFC between PFC and PC (average z-transformed correlation coefficient)” value in the experiment on wild-type rats (ICV osmotic pump, fMRI 21 days after) is reported as “significantly high activity”. In addition, the “rsFC seed-correlation spatial map, seed Cg1/2 (24b′/24a′)” value with wild-type rats (ICV) is “significantly enhanced region was observed in PC”.
In the case of “AREG-HB: Peptide of the heparin-binding domain of amphiregulin, SEQ ID NO: 14, from Peptron; control (SVRVEQVVKPPQNKTESENTSDKPKRKKKGGKNGKNRRNRK; AREG-HB Peptide) [reference compound]”, in the experiment with C57BL/6 mice, the “cages in which ranking of the lowest-ranked mouse increased after administration” value was 10%.
As for “mEGF: Recombinant mouse EGF from R&D Systems, SEQ ID NO: 12; control (NSYPGCPSSYDGYCLNGGVCMHIESLDSYTCNCVIGYSGDRCQTRDLRWWELR; Mouse EGF Protein; listed as Mus musculus) [reference compound]”, the “cages in which ranking of the lowest-ranked mouse increased after administration” value in the experiment on C57BL/6 mice came out at 0%.
